Type in all cases: cell-based
Experiment [1] concerns COX-2 expression in RAW 264.7 cells. Put plainly: Western blot analysis of COX-2. Conditions: 1 hour pretreatment, LPS 10 ng/ml, 8 hours, FIG. 4. On the procedure: (§1) RAW 264.7 cells obtained from ATCC (American Type Culture Collection) were incubated in a CO2 incubator (supplied with 5% CO2 and 95% air) with DMEM (Dulbecco's modified Eagle medium) medium containing 10% FBS and 100 units/ml of antibiotics (penicillin and streptomycin) at 37° C.
(§2) The incubated RAW 264.7 cells were treated with each of the peptides having the amino acid sequences of SEQ ID NOS: 1 to 4 for 1 hour, and then treated with LPS (10 ng/ml). After 8 hours, a protein of each of the cytosol and the nucleus was collected and compared with the changes in expressions of iNOS and COX-2 caused by hBD3, rhPDGF-BB and rhHB-EGF. The collected protein was identified by SDS-PAGE and transferred to a nitrocellulose membrane using a blotting kit. The membrane was blotted with each of the primary antibodies iNOS and COX-2 and exposed to HRP (horseradish peroxidase)-conjugated secondary antibody. Then, the membrane was allowed to react with an ECL western blot detection reagent and exposed to an X-ray film to detect signals, thereby measuring the expressions of the inflammation-associated enzymes iNOS and COX-2.
(Immunoblotting shows a protein as a band on a membrane.)

Experiment [2] deals with NF-κB expression in RAW 264.7 cells. Description: Western blot analysis of NF-κB. The settings on record: 1 hour pretreatment, LPS 10 ng/ml, 8 hours, FIG. 3. On the procedure: In order to examine association with signals, the expression of the allergic inflammation-associated enzyme NF-κB associated with the NF-κB signal was measured.
as §1
The incubated RAW 264.7 cells were treated with each of the peptides having the amino acid sequences of SEQ ID NOS: 1 to 4 for 1 hour, and then treated with LPS (10 ng/ml). After 8 hours, a protein of each of the cytosol and the nucleus was collected and compared with the changes in expression of NF-κB caused by hBD3, rhPDGF-BB and rhHB-EGF. The collected protein was identified by SDS-PAGE and transferred to a nitrocellulose membrane using a blotting kit. The membrane was blotted with the primary antibody NF-κB and exposed to HRP (horseradish peroxidase)-conjugated secondary antibody. Then, the membrane was allowed to react with an ECL western blot detection reagent and exposed to an X-ray film to detect a signal, thereby measuring the expression of the inflammation-associated enzyme NF-κB.

For experiment [3], the system named is iNOS expression in RAW 264.7 cells. Description: Western blot analysis of iNOS. The settings on record: 1 hour pretreatment, LPS 10 ng/ml, 8 hours, FIG. 4. On the procedure:
as §1, §2

The test system of experiment [4] is Prevotella intermedia, Actinomyces israelii, Fusobacterium nucleatum, Staphylococcus aureus subsp aureus, Streptococcus pyogenes, Staphylococcus epidermidis. Description: Antibacterial activity by liquid dilution method (colony count). The settings on record: liquid dilution method, 1, 10 and 100 μg/ml, 37° C. for 1 hour, number of colonies counted; FIG. 1. On the procedure: In order to evaluate the antibacterial effects of the peptides having the amino acid sequences of SEQ ID NOS: 1 to 4, measurement of the antibacterial activities of the peptides was carried out using a liquid dilution method. Periodontal pathogens, including Prevotella intermedia, Actinomyces israelii, and Fusobacterium nucleatum, were cultured in tryptic soy broth. Staphylococcus aureus subsp aureus and Streptococcus pyogenes were curtured in trypticase soy broth, and Staphylococcus epidermidis was curtured in nutrient liquid medium. After the above bacterial strains had been cultured until the absorbance at 620 nm reached 1, the cells were collected and used in the test. […]
In order to measure the antibacterial activities of the peptides using the liquid dilution method, 1 ml of distilled water was placed in a fine tube, after which 10 μl of the diluted bacterial cell solution was placed in the tube, and then 50 μl of the solution was plated on plate medium and used as a control. Meanwhile, plate medium was treated with each of the antibacterial peptides at concentrations of 1 μg/ml, 10 μg/ml and 100 μg/ml at 37° C. for 1 hours, after which 50 μl of the bacterial cell solution was plated on the plate medium, and the number of colonies produced was counted. […]

Experiment [5] deals with Basophilic leukemia RBL-2H3 cells. Description: Change in release of β-hexosaminidase (degranulation, anti-allergic effect). Conditions: RBL-2H3 cells sensitised with anti-DNP IgE, challenged with DNP-HAS; concentration of 100 μM; FIG. 2. On the procedure:
In order to examine the anti-allergic effects of the peptides having the amino acid sequences of SEQ ID NOS: 1 to 4, the changes in release of β-hexosaminidase by the peptides were measured.
Basophilic leukemia RBL-2H3 cells obtained from ATCC (American Type Culture Collection) were cultured in a CO2 incubator (supplied with 5% CO2 and 95% air) with DMEM (Dulbecco's modified Eagle medium) medium containing 10% FBS (heat inactivated fetal bovine serum) and 100 units/ml of antibiotics (penicillin and streptomycin) at 37° C. for 24 hours. Specifically, the cells were cultured in a 96-well plate at a density of 5×10^4 cells/well, and then the supernatant was removed. […] Then, the absorbance at 405 nm was measured and the change in release of β-hexosaminidase was determined. The method of measuring the amount of β-hexosaminidase is known to be sensitive and accurate compared to a method of quantifying histamine, and thus has recently been frequently used in studies on degranulation. For comparison, In addition, the changes in release of β-hexosaminidase by KF and growth factors (hBD3, rhPDGF-BB and rhHB-EGF), which are used as agents for treating allergic diseases, were measured in the same manner as described above and compared with the changes caused by the peptides.

Structures can show the parent of a compound that is named as a salt. No end group written: not given here.

For `CN1CCC(=C2c3ccccc3CC(=O)c3sccc32)CC1` [KF, ketotifen fumarate, reference compound], the “LPS-induced expression of COX-2” value in experiment [1] is recorded as “smaller than the inhibitory effects of the peptides”. The “LPS-induced expression of NF-κB” value in experiment [2] was “smaller than the inhibitory effects of the peptides”. For the same molecule, the “LPS-induced expression of iNOS” value in experiment [3] is “smaller than the inhibitory effects of the peptides”.
“hBD3: human beta-defensin-3, comparator (GIINTLQKYYCRVRGGRCAVLSCLPKEEQIGKCSTRGRKCCRRKK; ends and bridges not checked; cysteine pairing not given here; UniProt P81534 23-67, looked up)”: the “LPS-induced expression of COX-2” value in experiment [1] was “no inhibitory effect”. Moreover, the “LPS-induced expression of NF-κB” value in experiment [2] is “not greater than those of the peptides”. In addition, the antibacterial activity result in experiment [4] is on record as “lower than those of the peptides”. Besides, the “LPS-induced expression of iNOS” value in experiment [3] is listed as “no inhibitory effect”. The “release of β-hexosaminidase” value in experiment [5] is “did not influence the reduction in the release of β-hexosaminidase”.

B1: rhHB-EGF: recombinant human HB-EGF, comparator growth factor (protein, UniProt Q99075 63-148, looked up)
Heparin-binding EGF-like …: DLQEADLDLLRVTLSSKPQALATPNKEEHGKRKKKGKGLGKKRDPCLRKYKDFCIHGECKYVKELRAPSCICHPGYHGERCHGLSL
On to B1, for which, in experiment [1], the “LPS-induced expression of COX-2” value is on record as “no inhibitory effect”. Also, the “LPS-induced expression of NF-κB” value in experiment [2] was “not greater than those of the peptides”. The antibacterial activity entry in experiment [4] is given as “lower than those of the peptides”. Besides, the “LPS-induced expression of iNOS” value in experiment [3] was “no inhibitory effect”. For the same molecule, the “release of β-hexosaminidase” value in experiment [5] was “did not influence the reduction in the release of β-hexosaminidase”.

Source of the values: patent US8980844B2, “Peptide having antibacterial or anti-inflammatory activity and pharmaceutical composition containing the same as an active ingredient” (Nano Intelligent Biomedical Engineering Corporation Co. Ltd., priority 2010, dated 2015).
